Experimental data: PMC10217546, “Antioxidant Activities of Dihydromyricetin Derivatives with Different Acyl Donor Chain Lengths Synthetized by Lipozyme TL IM” (Foods, 2023)
Where two headings read alike, the source gives them in different places. Marks after values point to notes of the source that are not given here.

Tests used:
L-02 cells = assay: Cellular antioxidant activity (CAA) assay in L-02 cells; type: cell-based, Human
Description: Human normal hepatocytes (L-02 cells, passage number 4) were purchased from Cell Bank of Shanghai Institutes for Biological Sciences, Chinese Academy of Sciences (Shanghai, China) and cultured in RPMI 1640 medium (Invitrogen, Carlsbad, CA, USA) supplemented with 10% FBS and 1% penicillin-streptomycin double antibody and were cultured at 37 °C in 5% CO2.
The CAA assay was made using the method of Wolfe and Liu with modifications. L-02 cells were inoculated in black 96-well plates (6 × 10^4 /well, 100 μL) and incubated for 24 h. After removing culture medium, and the cells were washed with PBS and treated with the samples and DCFH-DA (25 μmol/L) for 1 h. Then, the cells were divided into two groups. One group was washed with PBS, and ABAP (600 μmol/L, 100 μL) was added to each well. Another group was only treated with adding 100 μL of ABAP (600 μmol/L) without washing. The black 96-well plates were measured by a Thermo Scientific Fluoroskan Ascent FL (Thermo Fisher Scientific, Waltham, MA, USA) every 5 min for 1 h at an emission wavelength of 538 nm and an excitation wavelength of 485 nm. Three control wells and one blank well were set. The control well was made up of the cells treated with ABAP but without samples, and the blank well was made up of the cells treated without ABAP and samples. Quercetin was used as the positive control. (6) CAA unit=1 - ∫SA/∫CA × 100 where ∫SA represents the area integral under the sample fluorescence value versus time curve and ∫CA represents the area integral under the control fluorescence value versus time curve.

[1] = Partition coefficient of lipids and water (log P), n-octanol/water by HPLC; type: physicochemical
Description: The lipophilicity of DHM and its derivatives was evaluated using log P, which was determined by a previous method with several modifications. Two milligrams of sample were dissolved in n-octanol solution (4 mL) saturated by water and analyzed using HPLC at 298 nm (A0). The n-octanol solution (1 mL) saturated by water containing the sample was mixed with water solution (1 mL) saturated by n-octanoland and then shaken using a constant-temperature water bath oscillator (Tianjin, China) at 30 °C for 24 h at 150 rpm. The ultraviolet absorbance of the upper solution was analyzed at 298 nm (Ax). The calculation equation of log P is as follows:(1) log P=log Ax / (A0 − Ax)

[2] = DPPH radical scavenging ability; conditions: for IC50 DPPH: DPPH radical scavenging test; for scavenging rate of DPPH free radicals: sample concentration 20 μg/mL, 30 min in the dark, 517 nm
Description: The method used to determine the abilities of DHM and its acylated derivatives was a previous method with some modifications. Two milliliters of DPPH (0.065 mg/mL) and 2 mL of the sample (3, 5, 10, 15, and 20 μg/mL) were added to a centrifuge tube and described at 517 nm after 30 min of reaction in a dark environment. Vc (a water-soluble antioxidant) and TBHQ (a lipid soluble antioxidant) were used as controls. (2) DPPH radical scavenging activity (%) =(1−A1 - A2/A0) × 100 where A0, A1, and A2 represent the absorbance values of the DPPH-ethanol, DPPH-sample, and sample-ethanol mixtures, respectively.

[3] = ABTS radical scavenging ability; conditions: ABTS radical scavenging test, 30 °C, 6 min, 734 nm
Description: The ability of DHM and its acylated derivatives to scavenge ABTS radicals was evaluated using a previous method with some modification. Samples (0.1 mL, 0.01, 0.02, 0.04, 0.06, and 0.08 mg/mL) were added to 3.9 mL of ABTS solution and measured at 734 nm after incubation at 30 °C for 6 min. Vc (a water-soluble antioxidant) and TBHQ (a lipid soluble antioxidant) were used as controls. (3) ABTS radical scavenging activity (%) =(1−A1 - A2/A0) × 100 where A0, A1, and A2 represent the absorbance values of the ABTS-ethanol, ABTS-samples, and samples-ethanol mixtures, respectively.

[4] = PBS wash between antioxidant and ABAP treatments, read-out: EC50 CAA Unit Wash
[5] = no PBS wash between antioxidant and ABAP treatments, read-out: EC50 CAA Unit No Wash
[6] = n-octanol/water, shaken at 30 °C for 24 h, HPLC at 298 nm
[7] = Homo sapiens, L02, PBS wash between antioxidant and ABAP treatments, read-out: EC50 CAA Unit Wash
[8] = Homo sapiens, L02, no PBS wash between antioxidant and ABAP treatments, read-out: EC50 CAA Unit No Wash

SMILES	IC50 DPPH [2]	IC50 ABTS [3]	logP at 24 h [1, 6]	log P [1]	EC50 (L-02 cells; [4]) [µM]	EC50 (L-02 cells; [5]) [µM]	log P [1, 6]	scavenging rate of DPPH free radicals [2] [%]	EC50 (L-02 cells; [7]) [µM]	EC50 (L-02 cells; [8]) [µM]
CC(=O)OC1C(=O)c2c(O)cc(O)cc2OC1c1cc(O)c(O)c(O)c1 (stereo not drawn) [C2-DHM, 3-O-acetyl-DHM]	9.07 ± 0.10 ^bc μg/mL	58.29 ± 2.20 ^a μg/mL			172 ± 8.84	77.8 ± 3.81	1.32	92.58 ± 1.33		
O=c1c(O)c(-c2ccc(O)c(O)c2)oc2cc(O)cc(O)c12 [Quercetin, reference compound]									29 ± 0.36	33.9 ± 3.67
CCCC(=O)OC1C(=O)c2c(O)cc(O)cc2OC1c1cc(O)c(O)c(O)c1 (stereo not drawn) [C4-DHM, 3-O-butyryl-DHM]	9.08 ± 0.25 ^bc μg/mL	56.30 ± 1.03 ^a μg/mL		1.50	60.7 ± 0.64	60.8 ± 6.23		92.70 ± 0.79		
CCCCCCCC(=O)OC1C(=O)c2c(O)cc(O)cc2OC1c1cc(O)c(O)c(O)c1 (stereo not drawn) [C8-DHM, 3-O-octanoyl-DHM]	12.69 ± 0.09 ^c μg/mL	80.15 ± 0.42 ^a μg/mL		1.73	35.14 ± 0.29	45.4 ± 0.74		74.14 ± 0.40		
CCCCCC(=O)OC1C(=O)c2c(O)cc(O)cc2OC1c1cc(O)c(O)c(O)c1 (stereo not drawn) [C6-DHM, 3-O-hexanoyl-DHM]	11.17 ± 0.04 ^bc μg/mL	77.22 ± 1.46 ^a μg/mL			52.9 ± 2.69	65.2 ± 3	1.67	82.53 ± 1.98		

Continued, in another order:

IC50 DPPH [2]	IC50 ABTS [3]	logP at 24 h [1, 6]	log P [1]	SMILES	EC50 (L-02 cells; [4]) [µM]	EC50 (L-02 cells; [5]) [µM]	log P [1, 6]	scavenging rate of DPPH free radicals [2] [%]	EC50 (L-02 cells; [7]) [µM]	EC50 (L-02 cells; [8]) [µM]
7.55 ± 0.18 ^ab μg/mL	79.34 ± 3.37 ^a μg/mL			CC(C)(C)c1cc(O)ccc1O [TBHQ, tert-butylhydroquinone, reference compound]						
9.04 ± 0.09 ^bc μg/mL	46.51 ± 2.19 ^a μg/mL	0.81		O=C1c2c(O)cc(O)cc2O[C@H](c2cc(O)c(O)c(O)c2)[C@H]1O [DHM, Dihydromyricetin]				93.37 ± 1.83	226 ± 4.67	90.2 ± 5.02
35.93 ± 5.63 ^d μg/mL	360.69 ± 50.13 ^b μg/mL		1.80	CCCCCCCCCCCC(=O)OC1C(=O)c2c(O)cc(O)cc2OC1c1cc(O)c(O)c(O)c1 (stereo not drawn) [C12-DHM, 3-O-lauroyl-DHM]	122 ± 9.48	234 ± 9.69		29.62 ± 4.88		
4.23 ± 1.38 ^a μg/mL	61.02 ± 2.15 ^a μg/mL			O=C1O[C@H]([C@@H](O)CO)C(O)=C1O [Vc, L-ascorbic acid, reference compound]						
